Source: US4451477A, “Bendazac treatment of cataract” (Aziende Chimiche Riunite Angelini Francesco A.C.R.A.F. …, priority 1981, dated 1984)
Values joined by “and” are separate entries in the source; they are usually repeats but may differ in a detail not shown here. Equal entries are not always repeated. “Also recorded” adds a separate entry of the source. Structures can show the parent of a compound that is named as a salt. Where two headings read alike, the source gives them in different places.

Key:
cataract [1] = conditions: literature, cited from earlier work
cataract [2] = assay: eye drops instilled in 4 patients with cataract; assay type: in vivo, human; conditions: topical, eye drops 3 times daily for one month
Method: Finally, bendazac was administered in 4 patients in the form of eye drops containing 0.25% of the lysine salt of bendazac. Eye drops were instilled 3 times daily for one month.

cataract [3] = assay: second experiment: double blind placebo-controlled anti-cataract study in patients, oral; assay type: in vivo, human; design: key to Vision / Refraction / Overall Judgement / Slit-lamp / Transillumination: +: improvement; 0: no change; -: worsening
Method: (§1) A first experiment was conducted on 24 patients with different types of cataract (cortical; corticonuclear, posterior subcapsular). […] The experiment included an examination of vision, refraction and slit-lamp test; the investigator was asked to express an overall judgement. These evaluations were performed before the beginning of treatment, after 4 weeks and again at the end of treatment when prolonged. The lysine salt of bendazac was administered at the dose of 1500 mg (corresponding to […] of bendazac) divided into three daily administrations during meals. The average duration of treatment was 50.4 days with time limits from 28 to 86 days. The study group consisted of 11 females and 13 males with an average age of 59.5 (47-74). The effects of treatment are summarized in Table 3; the values obtained in each patient are illustrated instead in Table 4. For practical purposes the results are expressed as: improvement (+), no change (0), worsening (-).
As a result of these encouraging results we decided to repeat the experiment under double blind conditions comparing the lysine salt of bendazac with placebo. A total of 35 patients were used; 19 were treated with placebo and 16 with the lysine salt of bendazac. The experimental methods used were identical to those described in the first experiment except for the duration of treatment which was always 4 weeks.

[4] = oral absorption in man, serum concentration after single oral administration; assay type: in vivo, human; conditions: for concentration at 2 h: human, serum
Source text: These blood levels appeared too low to obtain therapeutic activity.

cataract [5] = assay: first experiment: anti-cataract activity in 24 patients, oral; assay type: in vivo, human; design: key to Vision / Refraction / Slit-lamp and/or transillumin. / Overall Judgement: +: improvement; 0: no change; -: worsening
Method: as §1

isolated bovine lenses = assay: heat-induced opacification of isolated intact bovine lenses (50° C., 120 min, blind score); conditions: same molar concentrations for salts
Method: (§2) Experiments in vitro: A study was performed on both lens homogenates and intact lens. The opacification of this material was obtained by heating. For this purpose the same method as that already employed to study blood proteins was used (Silvestrini et al., 1968; Silvestrini et al., 1970) with some minor modifications which are reported below.
(§3) The experiment was repeated using different salts of bendazac including lithium, sodium, potassium, ammonium, organic bases (such as ethylenediamine, piperazine and diisopropylamine) and lysine. […] This experiment proves that the active ingredient is bendazac. The intact lens was studied by using fresh bovine lens which were kept for 2 hours in the phosphate buffer described above, either alone or containing bendazac at different concentrations. The lenses were then heated at 50° C. for 120 minutes; this procedure produced a clear-cut opacification in the subcapsular region. The degree of opacification was assessed blindly (the experimentor was unaware of the treatment), using a score from 0 to 4.
The test was repeated using the various salts of bendazac mentioned above and in this case also with the same molar concentrations the results obtained were identical to those observed with bendazac alone.

blood proteins = conditions: literature; cited from earlier work
[6] = cited from earlier work
[7] = target: bovine serum albumin (BSA) (Bos taurus, UniProt P02769); assay: heat-induced denaturation of bovine serum albumin (BSA); assay type: biochemical
Method: Experiments in vitro: A study was performed on both lens homogenates and intact lens. The opacification of this material was obtained by heating. For this purpose the same method as that already employed to study blood proteins was used (Silvestrini et al., 1968; Silvestrini et al., 1970) with some minor modifications which are reported below. For the study of the homogenate, fresh rat lens were used which has been removed from the capsule, immersed in phosphate buffer (pH 7.5; 0.1M) in the volumetric ratio of 15:85 and then homogenated. The homogenate was then centrifuged (10 minutes at 4000 r.p.m.), the supernatant was collected and further diluted 1:1 with the above phosphate buffer, alone or containing bendazac at different concentrations. The solution thus obtained was heated at 60° C. for 20 minutes and the denaturation was assessed nephelometrically. As reference a comparison is made with the values obtained with bovine serum albumin (BSA) denaturation.

lens homogenate = assay: heat-induced denaturation of lens homogenate (60° C., 20 min, nephelometric); assay type: biochemical, rat; conditions: for % inhibition of heat-induced denaturation of lens homogenate: 60° C., 20 min, pH 7.5
Method: as §2
For the study of the homogenate, fresh rat lens were used which has been removed from the capsule, immersed in phosphate buffer (pH 7.5; 0.1M) in the volumetric ratio of 15:85 and then homogenated. The homogenate was then centrifuged (10 minutes at 4000 r.p.m.), the supernatant was collected and further diluted 1:1 with the above phosphate buffer, alone or containing bendazac at different concentrations. The solution thus obtained was heated at 60° C. for 20 minutes and the denaturation was assessed nephelometrically. As reference a comparison is made with the values obtained with bovine serum albumin (BSA) denaturation.
as §3

[8] = 16 patients, 4 weeks, double blind, placebo (19) 1
[9] = 16 patients, 4 weeks, double blind, placebo (19) 2
[10] = 16 patients, 4 weeks, double blind, placebo (19) --
[11] = individual patient, one per line of Table 6, 4 weeks, oral, listed as bendazac L, (dihydrate)
[12] = 24 patients, 1500 mg daily oral, Table 3 summary
[13] = individual patient, one per line of Table 4, 1500 mg daily oral, 28-86 days, (dihydrate)
[14] = drug molar concentration 5 × 10^-4

bovine serum albumin (BSA), sequence (P02769 25-607): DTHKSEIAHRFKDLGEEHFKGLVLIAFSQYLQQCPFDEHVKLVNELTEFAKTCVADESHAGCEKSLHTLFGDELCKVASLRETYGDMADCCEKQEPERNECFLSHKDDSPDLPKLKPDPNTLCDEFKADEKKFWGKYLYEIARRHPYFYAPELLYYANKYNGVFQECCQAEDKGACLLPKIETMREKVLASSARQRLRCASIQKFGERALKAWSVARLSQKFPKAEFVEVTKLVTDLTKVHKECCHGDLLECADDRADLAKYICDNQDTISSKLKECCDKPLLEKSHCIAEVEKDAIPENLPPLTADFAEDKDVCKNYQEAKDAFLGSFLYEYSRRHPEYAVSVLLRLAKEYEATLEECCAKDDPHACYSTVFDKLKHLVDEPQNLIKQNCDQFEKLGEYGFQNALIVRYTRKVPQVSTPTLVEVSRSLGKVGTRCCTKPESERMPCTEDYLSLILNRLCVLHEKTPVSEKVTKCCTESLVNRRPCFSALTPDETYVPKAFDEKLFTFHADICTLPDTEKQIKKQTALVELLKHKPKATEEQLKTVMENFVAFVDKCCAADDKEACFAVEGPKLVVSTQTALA

CC(=O)Oc1ccccc1C(=O)O [aspirin, acetylsalicylic acid]
effect on cataract development (words) (cataract [1]): possible slowdown in cataract development | effect on cataract development (words) (cataract [1]; listed as acetylsalicylic acid): delays the development of cataract but does not determine its regression

O=C(O)COc1nn(Cc2ccccc2)c2ccccc12 [lysine salt of bendazac, Salt of [(1-benzyl-1H-indazol-3-yl)oxy]acetic acid with L. lysine (dihydrate)]
effect on cataract (cataract [2]): induces a regression of the disease | Overall Judgement: worsening (-), number of patients (cataract [3]; 16 patients, 4 weeks, double blind): 2 | Overall Judgement: improvement (+), number of patients (cataract [3]; [8]): 11 | Refraction: improvement (+), number of patients (cataract [3]; [8]): 9 | Transillumination: no change (0), number of patients (cataract [3]; [8]): 2 | Vision: improvement (+), number of patients (cataract [3]; [8]): 10 | Overall Judgement: no change (0), number of patients (cataract [3]; [9]): 3 | Slit-lamp: no change (0), number of patients (cataract [3]; [9]): 2 | Vision: no change (0), number of patients (cataract [3]; 16 patients, 4 weeks, double blind, placebo (19) 6): 6 | Slit-lamp: worsening (-), number of patients (cataract [3]; 16 patients, 4 weeks, double blind, placebo (19) 9): 1 | Refraction: no change (0), number of patients (cataract [3]; 16 patients, 4 weeks, double blind, placebo (19) 12): 7 | Slit-lamp: improvement (+), number of patients (cataract [3]; [10]): 10 | Transillumination: improvement (+), number of patients (cataract [3]; [10]): 4 | Overall Judgement (cataract [3]; [11]): 0 and + and - | Refraction (cataract [3]; [11]): 0 and + | Slit-lamp (cataract [3]; [11]): + and 0 and - | Transillumination (cataract [3]; [11]): + and 0 | Vision (cataract [3]; [11]): 0 and + | effect on cataract (cataract [3]; oral administration, patients, (dihydrate)): healing effect on cataract; also recorded: induces a regression of the disease | concentration at 2 h ([4]; 2 hours after single oral administration of 500 mg lysine salt (= 303.8 mg bendazac), 6 volunteers, read-out: mean serum concentration): 30000 ng/mL | oral absorption in man ([4]; lysine salt vs bendazac alone, (dihydrate)): good oral absorption; also recorded: better absorbed in man than bendazac alone | Overall Judgement: improvement (+), number of patients (cataract [5]; [12]): 18 | Overall Judgement: no change (0), number of patients (cataract [5]; [12]): 5 | Overall Judgement: worsening (-), number of patients (cataract [5]; [12]): 1 | Refraction: improvement (+), number of patients (cataract [5]; [12]): 10 | Refraction: no change (0), number of patients (cataract [5]; [12]): 13 | Refraction: worsening (-), number of patients (cataract [5]; [12]): 1 | Slit-lamp and/or Transillum.: improvement (+), number of patients (cataract [5]; [12]): 14 | Slit-lamp and/or Transillum.: no change (0), number of patients (cataract [5]; [12]): 10 | Vision: improvement (+), number of patients (cataract [5]; [12]): 18 | Vision: no change (0), number of patients (cataract [5]; [12]): 6 | number of patients with improvement (cataract [5]; depending on the evaluation method): 10-18 patients | number of patients with relatively poor results (cataract [5]; first experiment, 24 patients): 5 patients | number of patients with worsening effect (cataract [5]; first experiment, 24 patients): 1 patient | Overall Judgement (cataract [5]; [13]): + and - and 0 | Refraction (cataract [5]; [13]): + and 0 and - | Slit-lamp and/or transillumin. (cataract [5]; [13]): + and 0 | Vision (cataract [5]; [13]): + and 0

O=C(O)c1cc(O)c2c3nc4ccccc4oc-3cc(=O)c2n1 [Catalin, 1-hydroxy-5-oxo-5H-pyrido[3,2-a]phenoxazino-3-carboxylic acid]
effect on cataract development (words) (cataract [1]): possible slowdown in cataract development

O=C(O)COc1nn(Cc2ccccc2)c2ccccc12 [bendazac, [(1-benzyl-1H-indazol-3-yl)oxy]acetic acid]
protective effect on lens opacification in vitro (words) (isolated bovine lenses): protective action in vitro with respect to lens opacification | protective effect on lens opacification in vitro (words) (isolated bovine lenses; listed as Bendazac): clearcut protective effect on this experimentally induced cataract | anti-denaturant activity on proteins (blood proteins): very specific anti-denaturant activity on some blood proteins | oral absorption in humans ([6]; Silvestrini et al.): rather low; also recorded: too low | blood levels ([6]; following 8 days of treatment at increasing doses from 150 to 900 mg daily, humans): 8 µg | inhibition at 500 µM [7, 14]: 47% | inhibition at 1000 µM ([7]; drug molar concentration 10^-3): 60% | inhibition at 100 µM ([7]; drug molar concentration 10^-4): 12% | concentration at 2 h ([4]; 300 mg of bendazac alone, oral, under the same conditions, read-out: serum levels): 8000 ng/mL | protective effect on heat-induced denaturation of lens homogenate (lens homogenate; compared with BSA): prevents heat-induced denaturation of lens homogenate and that this protective effect is similar to that observed with BSA | % inhibition of heat-induced denaturation of lens homogenate (lens homogenate; [14]): 32% | % inhibition of heat-induced denaturation of lens homogenate (lens homogenate; drug molar concentration 10^-3): 68% | % inhibition of heat-induced denaturation of lens homogenate (lens homogenate; drug molar concentration 10^-4): 18%

O=C(O)COc1nn(Cc2ccccc2)c2ccccc12
anti-denaturant effect on the lens homogenate compared with bendazac alone (lens homogenate; at the same molar concentrations): the same anti-denaturant effect on the lens homogenate as that of bendazac alone
